Test results: publication PMC10895652, “Preclinical Evaluation of Novel Positron Emission Tomography (PET) Probes for Imaging Leucine-Rich Repeat Kinase 2 (LRRK2)” (Journal of Medicinal Chemistry, 2024)
Like-named read-outs stand apart in the source and are kept apart here.

How the values were obtained:
[1] = system: MDR1; details: cited from earlier work
[2] = cited from earlier work; for RRCK Papp AB: molecular formula strings file
[3] = system: LRRK2 WT; details: cited from earlier work
[4] = biological target: T1, LRRK2 (Rattus norvegicus, UniProt F1LNJ1); assay: In vitro autoradiography in rat brain sections; assay type: binding; details: blocking with 3 (10 μM)
T1 construct: from tissue; host or cells: rat brain (Sprague-Dawley rats)
Procedure: The general procedure for autoradiography studies was described previously with minor revision in this work.[36],[40] Brain sections from rats were preincubated with Tris-HCl buffer (50 mM), MgCl2 (1.2 mM) and CaCl2 (2 mM) solution for 20 min at ambient temperature, followed by incubation with [^11C]3 and [^18F]4 (0.48 nM). […] After incubation, brain sections were rinsed with ice-cold buffer 3 times for 2 min and dipped in cold distilled water for 10 s. The brain sections were dried with cold air and then placed on imaging plates (BAS-MS2025, GE Healthcare, NJ) for optimized contact periods. Autoradiograms were obtained and regions of interest (ROIs) were carefully drawn with the reference of naked-eye observation. Radioactivity was measured using an Amersham Typhoon 5 analyzer system and expressed as photostimulated luminescence values per unit area (PSL/mm^2) or normalized to % of radioactivity vs control.

[5] = biological target: LRRK2; parameters: method as in PMID 31365783, PMID 36256881, PMID 33582389, PMID 33248850; details: saturation assays; cited from earlier work
[6] = system: LRRK2; details: read-out: WCA IC50, cited from earlier work
[7] = human liver microsomal clearance; cited from earlier work
[8] = system: THLE cells; details: THLE cell viability; cited from earlier work
[9] = system: LRRK2 G2019S; details: cited from earlier work
[10] = parameters: method as in earlier work; details: molecular formula strings file; cited from earlier work

T1 sequence (F1LNJ1 1-2526): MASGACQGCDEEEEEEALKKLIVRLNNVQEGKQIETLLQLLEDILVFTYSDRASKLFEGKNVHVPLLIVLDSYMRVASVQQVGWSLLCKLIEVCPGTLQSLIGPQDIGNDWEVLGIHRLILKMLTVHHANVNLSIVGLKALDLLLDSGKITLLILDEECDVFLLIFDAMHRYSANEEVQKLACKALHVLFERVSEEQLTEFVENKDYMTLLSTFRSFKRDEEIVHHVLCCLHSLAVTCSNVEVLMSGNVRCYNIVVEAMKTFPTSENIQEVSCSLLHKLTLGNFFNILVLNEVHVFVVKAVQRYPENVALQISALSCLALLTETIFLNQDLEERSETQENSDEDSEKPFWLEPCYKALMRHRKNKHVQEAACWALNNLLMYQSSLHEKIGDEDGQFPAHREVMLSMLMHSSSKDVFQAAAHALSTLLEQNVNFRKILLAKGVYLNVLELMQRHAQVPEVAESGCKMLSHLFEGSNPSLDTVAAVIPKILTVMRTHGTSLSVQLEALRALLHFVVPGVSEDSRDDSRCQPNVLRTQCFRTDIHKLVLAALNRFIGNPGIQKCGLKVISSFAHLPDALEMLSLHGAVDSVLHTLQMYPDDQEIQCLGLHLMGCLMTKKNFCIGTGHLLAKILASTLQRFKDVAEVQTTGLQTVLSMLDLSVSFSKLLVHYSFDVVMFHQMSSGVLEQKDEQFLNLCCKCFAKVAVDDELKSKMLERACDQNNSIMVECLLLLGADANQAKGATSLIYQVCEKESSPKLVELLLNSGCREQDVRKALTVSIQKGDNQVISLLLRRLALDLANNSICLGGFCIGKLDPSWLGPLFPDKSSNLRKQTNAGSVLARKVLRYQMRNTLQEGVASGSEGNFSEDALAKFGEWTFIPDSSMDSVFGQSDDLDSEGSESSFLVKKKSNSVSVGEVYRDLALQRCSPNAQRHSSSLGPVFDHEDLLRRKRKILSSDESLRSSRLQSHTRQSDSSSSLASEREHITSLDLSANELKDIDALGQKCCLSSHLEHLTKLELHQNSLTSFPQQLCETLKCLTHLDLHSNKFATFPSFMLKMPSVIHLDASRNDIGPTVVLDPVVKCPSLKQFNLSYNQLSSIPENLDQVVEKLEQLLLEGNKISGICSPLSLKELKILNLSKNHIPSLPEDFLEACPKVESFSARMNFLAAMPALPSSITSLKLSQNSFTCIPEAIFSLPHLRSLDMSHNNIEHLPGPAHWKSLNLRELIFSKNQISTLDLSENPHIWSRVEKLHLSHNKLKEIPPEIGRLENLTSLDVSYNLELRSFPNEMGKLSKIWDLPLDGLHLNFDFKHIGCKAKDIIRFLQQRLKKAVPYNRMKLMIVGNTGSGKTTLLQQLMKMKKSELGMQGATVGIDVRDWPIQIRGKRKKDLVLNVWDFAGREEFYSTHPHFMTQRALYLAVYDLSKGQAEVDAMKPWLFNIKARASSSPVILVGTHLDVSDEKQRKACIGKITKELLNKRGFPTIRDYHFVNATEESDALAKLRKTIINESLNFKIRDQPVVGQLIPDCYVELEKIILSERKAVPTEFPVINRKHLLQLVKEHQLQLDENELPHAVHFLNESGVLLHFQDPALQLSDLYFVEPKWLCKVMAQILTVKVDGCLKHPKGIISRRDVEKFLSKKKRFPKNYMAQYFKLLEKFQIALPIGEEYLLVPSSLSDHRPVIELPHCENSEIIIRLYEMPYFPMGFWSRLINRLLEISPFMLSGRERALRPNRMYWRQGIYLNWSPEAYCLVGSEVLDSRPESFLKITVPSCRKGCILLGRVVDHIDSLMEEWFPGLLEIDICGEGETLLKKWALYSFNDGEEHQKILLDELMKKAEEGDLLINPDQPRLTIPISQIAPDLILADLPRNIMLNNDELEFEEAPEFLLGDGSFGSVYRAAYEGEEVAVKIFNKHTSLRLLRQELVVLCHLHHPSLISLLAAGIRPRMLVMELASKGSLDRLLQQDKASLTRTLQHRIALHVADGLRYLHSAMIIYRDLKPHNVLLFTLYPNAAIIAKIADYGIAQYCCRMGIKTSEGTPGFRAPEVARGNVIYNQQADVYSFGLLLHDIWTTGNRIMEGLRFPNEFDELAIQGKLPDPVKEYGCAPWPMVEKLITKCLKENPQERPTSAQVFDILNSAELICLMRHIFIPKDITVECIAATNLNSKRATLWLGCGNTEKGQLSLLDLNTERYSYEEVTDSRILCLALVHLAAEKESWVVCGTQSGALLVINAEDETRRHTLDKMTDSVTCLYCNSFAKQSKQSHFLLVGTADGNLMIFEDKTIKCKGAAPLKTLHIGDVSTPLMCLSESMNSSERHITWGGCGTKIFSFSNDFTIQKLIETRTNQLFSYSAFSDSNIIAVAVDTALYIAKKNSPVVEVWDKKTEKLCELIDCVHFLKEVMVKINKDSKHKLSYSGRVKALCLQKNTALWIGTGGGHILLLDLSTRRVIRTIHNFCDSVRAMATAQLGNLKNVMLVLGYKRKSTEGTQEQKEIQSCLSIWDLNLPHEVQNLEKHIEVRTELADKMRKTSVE

## CNc1nc(Nc2ccc(C(=O)N3CCOCC3)cc2O[11CH3])ncc1C(F)(F)F [GNE-1023, reference compound]
[1]; MDR1 efflux ratio
  MDR1 BA/AB: 1.2
[2]; passive permeability
  RRCK PappAB: 18.2 1 × 10^–6 cm/s
[3]; biochemical LRRK2 assay, n ≥ 2
  IC50: 2 nM

## N#[11C]c1cccc(-c2c[nH]c3ncnc(N4CCOCC4)c23)c1 [[^11C]3]
[4]; cerebellum
  reduction of radioactive uptake under self-blocking: 83%
[4]; cerebral cortex
  reduction of radioactive uptake under self-blocking: 87%
[4]; hippocampus
  reduction of radioactive uptake under self-blocking: 87%
[4]; pons
  reduction of radioactive uptake under self-blocking: 64%
[4]; striatum
  reduction of radioactive uptake under self-blocking: 85%
[4]; thalamus
  reduction of radioactive uptake under self-blocking: 83%

## CC(C)(C)Cn1ccc2c(N3CCOCC3)nc(-c3ccc(NC(=O)c4ccc([18F])nc4)cc3)nc21 [FMN3PA]
[5]
  Kd: 20 nM

## CN(C)c1ncnc2[nH]cc(-c3ccc([18F])nc3)c12 [compound 1]
[5]
  Kd: 6.7 nM

## CC(C)(C)Cn1ccc2c(N3CCOCC3)nc(-c3ccc(NC(=O)Nc4ccc([18F])nc4)cc3)nc21 [FMN3PU]
[5]
  Kd: 23.6 nM

## [18F]c1ccc(-c2c[nH]c3ncnc(N4CCOCC4)c23)cn1 [compound 2]
[5]
  Kd: 14.3 nM

## N#Cc1cccc(-c2c[nH]c3ncnc(N4CCOCC4)c23)c1 [compound 3, 3-(4-morpholino-7H-pyrrolo[2,3-d]pyrimidin-5-yl)benzonitrile]
[6]; Table S1
  IC50: 25 nM
[1]; MDR1 efflux ratio
  MDR1 BA/AB: 1.08
[1]; Table S1
  MDR1 BA/AB: 1.0
[7]
  HLM CL: 36 mL/min/kg
[2]; Table S1, unit assumed
  RRCK PappAB: 27 10^-6 cm/s
[2]
  RRCK Papp AB: 26.68
[2]; passive permeability
  RRCK PappAB: 26.68 1 × 10^–6 cm/s
[8]
  IC50: > 223 µM
[9]; biochemical LRRK2 assay, n ≥ 2
  IC50: 14 nM
[3]; biochemical LRRK2 assay, n ≥ 2
  IC50: 3 nM

## N#Cc1cccc(-c2c[nH]c3ncnc(N4CCOCC4)c23)c1F [compound 4]
[6]; whole cellular LRRK2 assay, n ≥ 2
  IC50: 20 nM
[1]; MDR1 efflux ratio
  MDR1 BA/AB: 1.10
[7]
  HLM CL: 31.4 mL/min/kg
[2]; Table S1, unit assumed
  RRCK PappAB: 29.2 10^-6 cm/s
[2]
  RRCK Papp AB: 29.18
[2]; passive permeability
  RRCK PappAB: 29.18 1 × 10^–6 cm/s
[8]
  IC50: 162 µM
[9]; Table S1
  IC50: 9 nM
[3]; Table S1
  IC50: 3 nM
[3]; biochemical LRRK2 assay, n ≥ 2
  IC50: 3.58 nM
[10]
  LogD: 2.072
  pKa: 5.61
